According to US6929810B2, “Preparation of essential oil compositions for portable liquid disinfection” (Council of Scientific and Industrial Research, priority 2001, dated 2005):

System: E. coli
Test: bore-well method (zone of inhibition)
Type: cell-based
Settings: standard antibiotics available in the market

Compound	Zone of Inhibition, Antibiotic [mm]
CC1(C)S[C@@H]2[C@H](NC(=O)[C@H](N)c3ccccc3)C(=O)N2[C@H]1C(=O)O [Ampicillin]	14
O=C(N[C@H](CO)[C@H](O)c1ccc([N+](=O)[O-])cc1)C(Cl)Cl [Chloromphenilcol]	35
CN(C)[C@@H]1C(O)=C(C(N)=O)C(=O)[C@@]2(O)C(O)=C3C(=O)c4c(O)cccc4[C@@](C)(O)[C@H]3C[C@@H]12 [Tetracycline]	24
Gentamycin	24
CC[C@H]1OC(=O)[C@H](C)[C@@H](O[C@H]2C[C@@](C)(OC)[C@@H](O)[C@H](C)O2)[C@H](C)[C@@H](O[C@@H]2O[C@H](C)C[C@H](N(C)C)[C@H]2O)[C@](C)(O)C[C@@H](C)C(=O)[C@H](C)[C@@H](O)[C@]1(C)O [Erythromycin]	10
NC[C@H]1O[C@H](O[C@H]2[C@H](O)[C@@H](O[C@H]3O[C@H](CO)[C@@H](O)[C@H](N)[C@H]3O)[C@H](N)C[C@@H]2N)[C@H](O)[C@@H](O)[C@@H]1O [Kanamycin]	30
